These results are taken from ChEMBL document CHEMBL4765398, “Benzothiophene-2-carboxamide derivatives as SENPs inhibitors with selectivity within SENPs family” (Eur J Med Chem, 2020).

Experiment [1] concerns the target T1, Sentrin-specific protease 5 (Homo sapiens, UniProt Q96HI0).
T1 sequence (Q96HI0 whole entry): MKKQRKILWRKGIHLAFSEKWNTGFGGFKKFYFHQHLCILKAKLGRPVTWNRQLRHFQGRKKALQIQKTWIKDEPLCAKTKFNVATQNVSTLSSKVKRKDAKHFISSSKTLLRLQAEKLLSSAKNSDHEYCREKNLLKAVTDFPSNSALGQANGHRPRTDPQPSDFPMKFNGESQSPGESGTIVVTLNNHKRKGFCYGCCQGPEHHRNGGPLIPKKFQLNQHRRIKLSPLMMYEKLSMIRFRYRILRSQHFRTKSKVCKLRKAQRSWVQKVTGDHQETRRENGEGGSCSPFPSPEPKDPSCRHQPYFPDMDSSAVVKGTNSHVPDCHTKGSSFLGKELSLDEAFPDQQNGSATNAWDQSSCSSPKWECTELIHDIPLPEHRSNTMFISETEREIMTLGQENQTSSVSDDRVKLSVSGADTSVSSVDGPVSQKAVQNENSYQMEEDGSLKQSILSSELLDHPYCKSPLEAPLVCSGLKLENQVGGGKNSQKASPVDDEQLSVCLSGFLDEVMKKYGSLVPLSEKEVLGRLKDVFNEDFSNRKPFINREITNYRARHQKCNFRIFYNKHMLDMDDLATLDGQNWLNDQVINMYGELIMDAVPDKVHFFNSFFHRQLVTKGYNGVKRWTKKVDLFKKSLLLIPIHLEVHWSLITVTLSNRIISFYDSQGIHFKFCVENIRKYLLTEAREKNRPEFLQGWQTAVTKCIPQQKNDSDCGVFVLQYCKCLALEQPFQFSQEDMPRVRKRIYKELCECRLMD
In words: Inhibition of recombinant human SNEP5 (567 to 755 residues) expressed in Escherichia coli (DE3) cells using RanGAP-SUMO2 substrate preincubated for 10 mins followed by substrate addition and measured after 25 min by Coomassie blue staining based SDS-PAGE analysis.

The target in experiment [2] is T2, Sentrin-specific protease 1 (Homo sapiens, UniProt Q9P0U3).
T2 sequence (Q9P0U3 whole entry): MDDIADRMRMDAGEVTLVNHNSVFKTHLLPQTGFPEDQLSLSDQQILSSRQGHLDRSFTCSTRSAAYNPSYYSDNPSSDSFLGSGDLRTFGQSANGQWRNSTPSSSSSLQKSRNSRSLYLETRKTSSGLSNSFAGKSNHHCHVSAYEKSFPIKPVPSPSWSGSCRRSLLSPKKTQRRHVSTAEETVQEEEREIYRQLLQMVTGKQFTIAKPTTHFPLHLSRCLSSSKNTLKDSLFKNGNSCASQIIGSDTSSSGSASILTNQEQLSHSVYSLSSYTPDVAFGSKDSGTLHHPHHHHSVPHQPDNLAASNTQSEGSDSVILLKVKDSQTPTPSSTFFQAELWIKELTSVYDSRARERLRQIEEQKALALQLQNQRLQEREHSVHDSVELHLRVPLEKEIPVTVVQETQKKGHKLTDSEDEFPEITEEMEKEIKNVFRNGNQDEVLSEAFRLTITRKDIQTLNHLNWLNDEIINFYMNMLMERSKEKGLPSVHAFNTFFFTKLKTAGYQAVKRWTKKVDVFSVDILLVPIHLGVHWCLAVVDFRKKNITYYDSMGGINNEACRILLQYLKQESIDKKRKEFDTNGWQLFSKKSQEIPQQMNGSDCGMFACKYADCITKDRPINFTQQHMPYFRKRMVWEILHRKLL
In words: Inhibition of recombinant human SNEP1 (419 to 644 residues) expressed in Escherichia coli (DE3) cells using RanGAP-SUMO2 substrate preincubated for 10 mins followed by substrate addition and measured after 25 min by Coomassie blue staining based SDS-PAGE analysis.

Experiment [3] has as its target T3, Sentrin-specific protease 2 (Homo sapiens, UniProt Q9HC62).
T3 sequence (Q9HC62 whole entry): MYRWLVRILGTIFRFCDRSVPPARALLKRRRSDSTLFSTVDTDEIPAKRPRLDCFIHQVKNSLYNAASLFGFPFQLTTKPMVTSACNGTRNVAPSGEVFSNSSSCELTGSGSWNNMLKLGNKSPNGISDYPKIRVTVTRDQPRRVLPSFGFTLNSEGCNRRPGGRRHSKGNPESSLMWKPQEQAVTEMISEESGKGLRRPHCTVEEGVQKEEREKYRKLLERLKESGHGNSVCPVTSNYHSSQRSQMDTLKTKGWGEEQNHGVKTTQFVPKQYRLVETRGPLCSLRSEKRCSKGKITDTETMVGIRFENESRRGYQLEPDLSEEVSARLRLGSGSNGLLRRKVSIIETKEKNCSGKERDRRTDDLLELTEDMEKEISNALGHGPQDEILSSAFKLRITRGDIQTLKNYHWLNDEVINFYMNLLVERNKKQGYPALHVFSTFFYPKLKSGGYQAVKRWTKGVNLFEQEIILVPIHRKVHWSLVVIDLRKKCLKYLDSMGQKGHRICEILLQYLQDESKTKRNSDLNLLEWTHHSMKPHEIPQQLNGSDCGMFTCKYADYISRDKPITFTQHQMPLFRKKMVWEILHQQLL
In words: Inhibition of recombinant human SNEP2 (365 to 589 residues) expressed in Escherichia coli (DE3) cells using RanGAP-SUMO2 substrate preincubated for 10 mins followed by substrate addition and measured after 25 min by Coomassie blue staining based SDS-PAGE analysis.

Experiment [4] can be described thus: Inhibition of recombinant human SNEP1 W465A mutant (419 to 644 residues) expressed in Escherichia coli (DE3) cells using RanGAP-SUMO2 substrate preincubated for 10 mins followed by substrate addition and measured after 25 min by Coomassie blue staining based SDS-PAGE analysis.
Experiment [5] can be described thus: Inhibition of recombinant human SNEP1 K455A mutant (419 to 644 residues) expressed in Escherichia coli (DE3) cells using RanGAP-SUMO2 substrate preincubated for 10 mins followed by substrate addition and measured after 25 min by Coomassie blue staining based SDS-PAGE analysis.
Experiment [6] is described as follows: Inhibition of recombinant human SNEP1 Q597A mutant (419 to 644 residues) expressed in Escherichia coli (DE3) cells using RanGAP-SUMO2 substrate preincubated for 10 mins followed by substrate addition and measured after 25 min by Coomassie blue staining based SDS-PAGE analysis.
Experiment [7] in a line: Inhibition of recombinant human SNEP1 F496A mutant (419 to 644 residues) expressed in Escherichia coli (DE3) cells using RanGAP-SUMO2 substrate preincubated for 10 mins followed by substrate addition and measured after 25 min by Coomassie blue staining based SDS-PAGE analysis.
A short description of experiment [8]: Inhibition of recombinant human SNEP1 H529A mutant (419 to 644 residues) expressed in Escherichia coli (DE3) cells using RanGAP-SUMO2 substrate preincubated for 10 mins followed by substrate addition and measured after 25 min by Coomassie blue staining based SDS-PAGE analysis.

pIC50: −log10 of the molar value.

For orientation: pIC50 means −log10 of the IC50, conventionally taken in molar units. Regarding `Nc1ccc(C(=O)Nc2cccc(CNC(=O)c3sc4ccccc4c3OCc3ccccc3)c2)cc1`, the pIC50 in experiment [1] is below 4.00.

Turning to `CC(=O)Nc1cccc(CNC(=O)c2sc3ccccc3c2OCc2ccccc2)c1`, the pIC50 in experiment [2] was 4.60; in experiment [3] it was 4.28; in experiment [1] it was 4.54.

Take `CCOC(=O)CNc1ccc2sc(C(=O)NCc3cccc(NC(=O)c4cccs4)c3)c(OCc3ccccc3)c2c1`: the pIC50 was 4.39 in experiment [4]; 5.47 in experiment [5]; 4.65 in experiment [6]; 5.23 in experiment [7]; 4.67 in experiment [8].
